The values below are quoted from earlier work in patent US20240377385A1, “METHODS AND COMPOSITIONS OF MATTER FOR TREATING CANCER AND PREDICTING RESPONSE TO THERAPY” (ICCA INC., priority 2023, published 2024).

Data set [1] has as its system PAIII androgen-independent syngeneic prostate cancer cell line. The conditions noted are these: daily intraperitoneal administration for 30 days, evaluation at day 40; cited from earlier work.
The subject of data set [2] is human xenografted glioma, ovarian, and neuroblastoma cells. The conditions noted are these: cited from earlier work.
The subject of data set [3] is battery of tumor cell lines. The conditions noted are these: in vitro; cited from earlier work.
Another data set has as its system HUVEC. As to conditions: in vitro; cited from earlier work.
Another data set deals with neovascularization. As to conditions: cited from earlier work.
The test system of the next data set is vascular cord formation. The conditions noted are these: in vivo administration; cited from earlier work.
The test system of a further data set is S-180 sarcoma. As to conditions: parenteral administration; cited from earlier work.
Another data set relates to T cell and B cell. The conditions noted are these: high dose; in vitro; cited from earlier work.
In the next data set the test system is NK. As to conditions: high dose; cited from earlier work.
In a further data set the test system is dendritic cells. As to conditions: cited from earlier work.
The subject of data set [4] is hypoxia inducible factor (HIF)-1. The conditions noted are these: cited from earlier work.
Data set [5] deals with monocytes derived from human peripheral blood. The conditions noted are these: 12 hour exposure; cited from earlier work.

Each structure is given as a SMILES string.

On to `O=C1O[C@H]([C@@H](O)CO)C(O)=C1O` [AA, ascorbic acid], for which, in data set [1], the “pulmonary and lymphatic metastasis” value is “reduction”; the tumor growth result was “significant inhibition”. The “in vivo inhibition of xenografted cells” value in [2] is “successful in vivo inhibition”. In addition, the “cytotoxicity of Docetaxel, Epirubicin, Irinotecan and 5-FU” value in data set [3] is recorded as “Enhancement”. Also, the HUVEC proliferation entry with HUVEC is “inhibits”. Further, the neovascularization result with neovascularization is given as “suppressing neovascularization”. Further, the vascular cord formation result in the data set on vascular cord formation is given as “suppressed vascular cord formation”. In the data set on S-180 sarcoma, the “angiogenesis and the pro-angiogenic factors bFGF, VEGF, and MMP-2” value was “suppression”; the tumor growth result is given as “reduced tumor growth”. The “T cell and B cell proliferative responses as well as IL-2 secretion” value in the data set with T cell and B cell is given as “inhibits”. Also, the NK cytotoxic activity result in the data set on NK is on record as “inhibits”. In addition, in the data set with dendritic cells, the “T cell activating ability of dendritic cells” value is given as “inhibit”. Besides, in data set [4], the “activation of the hypoxia inducible factor (HIF)-1” value is given as “suppresses activation”.

Turning to `CCOCc1nc2c(N)nc3ccccc3c2n1CC(C)(C)O` [Group R-848, resiquimod], the “FcgammaR-mediated cytokine production and antibody-dependent cellular cytotoxicity by monocytes” value in data set [5] is listed as “increased”.
